In the supplement of paper PMC10307832:

Legend:
Test in all cases: relative viability (nuclei count vs DMSO), 5 days (fraction); higher = more cells survive
NCI-H23 = test system: NCI-H23
How it was run: (§1)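 For relative viability, nuclei counts in treated wells were divided by those in vehicle wells. Lung cancer cell lines had been pin-tool dosed in 1536-well plates the day after seeding and cultured for 5 days, then fixed and stained in one step (final 0.05% Triton X-100, 1% formaldehyde, 1 ug/ml Hoechst) and imaged at 4×. Doses were one drug alone or a fixed anchor-drug dose plus five library-drug doses (not always all listed) in √10 steps, and values are duplicate-plate medians.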

A-427 = test system: A-427
How it was run: as §1

NCI-H1563 = test system: NCI-H1563
How it was run: as §1

NCI-H1755 = test system: NCI-H1755
How it was run: as §1

NCI-H441 = test system: NCI-H441
How it was run: as §1

SK-MES-1 = test system: SK-MES-1
How it was run: as §1

NCI-H596 = test system: NCI-H596
How it was run: as §1

NCI-H520 = test system: NCI-H520
How it was run: as §1

NCI-H1666 = test system: NCI-H1666
How it was run: as §1

ChaGo-K-1 = test system: ChaGo-K-1
How it was run: as §1

LOU-NH91 = test system: LOU-NH91
How it was run: as §1

COR-L 105 = test system: COR-L 105
How it was run: as §1

NCI-H1734 = test system: NCI-H1734
How it was run: as §1

SW 900 = test system: SW 900
How it was run: as §1

NCI-H2170 = test system: NCI-H2170
How it was run: as §1

NCI-H1975 = test system: NCI-H1975
How it was run: as §1

H3255 = test system: H3255
How it was run: as §1

EMC-BAC-2 = test system: EMC-BAC-2
How it was run: as §1

LK-2 = test system: LK-2
How it was run: as §1

HCC-366 = test system: HCC-366
How it was run: as §1

PC-3 [JPC-3] = test system: PC-3 [JPC-3]
How it was run: as §1

EKVX = test system: EKVX
How it was run: as §1

`O=c1cc(N2CCOCC2)oc2c(-c3cccc4c3sc3ccccc34)cccc12` + N=C(N)NC(=N)NCCc1ccccc1 [Phenformin] (partner 250 µM) showed a relative viability (NCI-H23; first compound 0.01 µM) of 0.83, a relative viability (NCI-H23; first compound 0.03162 µM) of 0.801 and a relative viability (NCI-H23; first compound 0.3162 µM) of 0.792. The relative viability (NCI-H23; first compound 1 µM) was 0.806, the relative viability (A-427; first compound 0.01 µM) was 0.31 and the relative viability (A-427; first compound 0.03162 µM) was 0.294. For the same compound, the relative viability (A-427; first compound 0.1 µM) was 0.315, the relative viability (A-427; first compound 0.3162 µM) was 0.313 and the relative viability (A-427; first compound 1 µM) was 0.341. The relative viability (NCI-H1563; first compound 0.01 µM) was 0.644, the relative viability (NCI-H1563; first compound 0.03162 µM) was 0.733 and the relative viability (NCI-H1563; first compound 0.1 µM) was 0.635. The relative viability (NCI-H1563; first compound 0.3162 µM) was 0.671, the relative viability (NCI-H1563; first compound 1 µM) was 0.612 and the relative viability (NCI-H1755; first compound 0.01 µM) was 0.652. It also gave a relative viability (NCI-H1755; first compound 0.03162 µM) of 0.694, a relative viability (NCI-H1755; first compound 0.1 µM) of 0.655 and a relative viability (NCI-H1755; first compound 0.3162 µM) of 0.614. The relative viability (NCI-H1755; first compound 1 µM) was 0.605, the relative viability (NCI-H441; first compound 0.01 µM) was 0.862 and the relative viability (NCI-H441; first compound 0.03162 µM) was 0.805. It also gave a relative viability (NCI-H441; first compound 0.1 µM) of 0.861, a relative viability (NCI-H441; first compound 0.3162 µM) of 0.811 and a relative viability (NCI-H441; first compound 1 µM) of 0.771. It also gave a relative viability (SK-MES-1; first compound 0.01 µM) of 0.652, a relative viability (SK-MES-1; first compound 0.03162 µM) of 0.688 and a relative viability (SK-MES-1; first compound 0.1 µM) of 0.688. It also gave a relative viability (SK-MES-1; first compound 0.3162 µM) of 0.671, a relative viability (SK-MES-1; first compound 1 µM) of 0.668 and a relative viability (NCI-H596; first compound 0.01 µM) of 0.73. It also gave a relative viability (NCI-H596; first compound 0.03162 µM) of 0.837, a relative viability (NCI-H596; first compound 0.1 µM) of 0.717 and a relative viability (NCI-H596; first compound 0.3162 µM) of 0.743. It also gave a relative viability (NCI-H596; first compound 1 µM) of 0.76, a relative viability (NCI-H520; first compound 0.01 µM) of 0.663 and a relative viability (NCI-H520; first compound 0.03162 µM) of 0.555. The relative viability (NCI-H520; first compound 0.1 µM) was 0.547, the relative viability (NCI-H520; first compound 0.3162 µM) was 0.672 and the relative viability (NCI-H520; first compound 1 µM) was 0.644. For the same compound, the relative viability (NCI-H1666; first compound 0.01 µM) was 0.566, the relative viability (NCI-H1666; first compound 0.03162 µM) was 0.607 and the relative viability (NCI-H1666; first compound 0.1 µM) was 0.526. It also gave a relative viability (NCI-H1666; first compound 0.3162 µM) of 0.54, a relative viability (NCI-H1666; first compound 1 µM) of 0.584 and a relative viability (ChaGo-K-1; first compound 0.01 µM) of 0.401. The relative viability (ChaGo-K-1; first compound 0.03162 µM) was 0.579, the relative viability (ChaGo-K-1; first compound 0.1 µM) was 0.386 and the relative viability (ChaGo-K-1; first compound 0.3162 µM) was 0.547. It also gave a relative viability (ChaGo-K-1; first compound 1 µM) of 0.468, a relative viability (LOU-NH91; first compound 0.01 µM) of 0.58 and a relative viability (LOU-NH91; first compound 0.03162 µM) of 0.688. The relative viability (LOU-NH91; first compound 0.1 µM) was 0.689, the relative viability (LOU-NH91; first compound 0.3162 µM) was 0.791 and the relative viability (LOU-NH91; first compound 1 µM) was 0.618. For the same compound, the relative viability (COR-L 105; first compound 0.01 µM) was 0.462, the relative viability (COR-L 105; first compound 0.03162 µM) was 0.497 and the relative viability (COR-L 105; first compound 0.1 µM) was 0.607. For the same compound, the relative viability (COR-L 105; first compound 0.3162 µM) was 0.568, the relative viability (COR-L 105; first compound 1 µM) was 0.383 and the relative viability (NCI-H1734; first compound 0.01 µM) was 0.379. For the same compound, the relative viability (NCI-H1734; first compound 0.03162 µM) was 0.379, the relative viability (NCI-H1734; first compound 0.1 µM) was 0.403 and the relative viability (NCI-H1734; first compound 0.3162 µM) was 0.388. It also gave a relative viability (NCI-H1734; first compound 1 µM) of 0.352, a relative viability (SW 900; first compound 0.01 µM) of 0.291 and a relative viability (SW 900; first compound 0.03162 µM) of 0.635. For the same compound, the relative viability (SW 900; first compound 0.1 µM) was 0.485, the relative viability (SW 900; first compound 0.3162 µM) was 0.551 and the relative viability (SW 900; first compound 1 µM) was 0.56. For the same compound, the relative viability (NCI-H2170; first compound 0.01 µM) was 0.401, the relative viability (NCI-H2170; first compound 0.03162 µM) was 0.422 and the relative viability (NCI-H2170; first compound 0.1 µM) was 0.462. It also gave a relative viability (NCI-H2170; first compound 0.3162 µM) of 0.384, a relative viability (NCI-H2170; first compound 1 µM) of 0.39 and a relative viability (NCI-H1975; first compound 0.01 µM) of 0.414. For the same compound, the relative viability (NCI-H1975; first compound 0.03162 µM) was 0.439, the relative viability (NCI-H1975; first compound 0.1 µM) was 0.408 and the relative viability (NCI-H1975; first compound 0.3162 µM) was 0.397. It also gave a relative viability (NCI-H1975; first compound 1 µM) of 0.418, a relative viability (H3255; first compound 0.01 µM) of 0.388 and a relative viability (H3255; first compound 0.03162 µM) of 0.334. The relative viability (H3255; first compound 0.1 µM) was 0.328, the relative viability (H3255; first compound 0.3162 µM) was 0.368 and the relative viability (H3255; first compound 1 µM) was 0.35. The relative viability (EMC-BAC-2; first compound 0.01 µM) was 0.423, the relative viability (EMC-BAC-2; first compound 0.03162 µM) was 0.57 and the relative viability (EMC-BAC-2; first compound 0.1 µM) was 0.55. The relative viability (EMC-BAC-2; first compound 0.3162 µM) was 0.556, the relative viability (EMC-BAC-2; first compound 1 µM) was 0.564 and the relative viability (LK-2; first compound 0.01 µM) was 0.593. For the same compound, the relative viability (LK-2; first compound 0.03162 µM) was 0.404, the relative viability (LK-2; first compound 0.1 µM) was 0.573 and the relative viability (LK-2; first compound 0.3162 µM) was 0.38. For the same compound, the relative viability (LK-2; first compound 1 µM) was 0.361, the relative viability (HCC-366; first compound 0.01 µM) was 0.608 and the relative viability (HCC-366; first compound 0.03162 µM) was 0.697. The relative viability (HCC-366; first compound 0.1 µM) was 0.661, the relative viability (HCC-366; first compound 0.3162 µM) was 0.601 and the relative viability (HCC-366; first compound 1 µM) was 0.668. For the same compound, the relative viability (PC-3 [JPC-3]; first compound 0.01 µM) was 0.467, the relative viability (PC-3 [JPC-3]; first compound 0.03162 µM) was 0.476 and the relative viability (PC-3 [JPC-3]; first compound 0.1 µM) was 0.441. It also gave a relative viability (PC-3 [JPC-3]; first compound 0.3162 µM) of 0.496, a relative viability (PC-3 [JPC-3]; first compound 1 µM) of 0.513 and a relative viability (EKVX; first compound 0.01 µM) of 0.228. The relative viability (EKVX; first compound 0.03162 µM) was 0.238, the relative viability (EKVX; first compound 0.1 µM) was 0.201 and the relative viability (EKVX; first compound 0.3162 µM) was 0.216. It also gave a relative viability (EKVX; first compound 1 µM) of 0.199.
